{
  "source": "patent US11214803B2",
  "about": "“Modulators of YAP1 expression” (Ionis Pharmaceuticals, Inc., priority 2019, dated 2022)",
  "key": {"[1]": {"tested_on": "Yap1 mRNA", "assay": "Dose-dependent inhibition of human Yap1 in A-431 cells (Example 6, 5,000 cells per well, RTS4814)", "format": "cell-based", "conditions": "Table 53, A-431 cells", "in_short": "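A-431 cells (5,000/well) took up oligonucleotides by free uptake at various doses for about 48 h. Yap1 mRNA was measured by RT-PCR (RTS4814), normalised to RIBOGREEN total RNA and expressed as % untreated control; IC50 by linear regression on a log/linear plot.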"}, "[2]": {"assay": "Tolerability in Balb/c mice, body and organ weights (Example 11)", "format": "in vivo", "conditions": "50 mg/kg subcutaneously twice a week for four weeks, end of study", "in_short": "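Male Balb/c mice, 4-6 weeks old, dosed subcutaneously with 50 mg/kg modified oligonucleotide twice weekly for four weeks (8 doses), PBS group as control. Euthanized day 26, 24 hours after the last dose; body and organ weights recorded at study end.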"}, "[3]": {"assay": "Tolerability in CD-1 mice, plasma chemistry markers (Example 15)", "format": "in vivo", "conditions": "male CD-1 mice, 50 mg/kg s.c. twice a week for four weeks (8 treatments), day 26", "protocol": "CD-1 mice were treated with modified oligonucleotides selected from studies described above and evaluated for changes in the levels of various plasma chemistry markers.\n(§1) Groups of four male CD-1 mice at 4-5 weeks of age (obtained from Charles River) were injected subcutaneously twice a week for four weeks (for a total of 8 treatments) with 50 mg/kg of modified oligonucleotides. One group of male CD-1 mice was injected with PBS. Mice were euthanized on day 26 post start of treatment (24 hrs following the final administration)."}, "[4]": {"assay": "Tolerability in Balb/c mice, plasma chemistry markers (Example 10)", "format": "in vivo", "conditions": "male Balb/c mice, 50 mg/kg subcutaneously twice a week for four weeks, day 26", "protocol": "(§2) Balb/c mice were treated with modified oligonucleotides selected from studies described above and evaluated for changes in the levels of various plasma chemistry markers.\nas §1, with “of” for “of four”, “Balb/c” for “CD-1”, “4-6” for “4-5”, “Taconic)” for “Charles River)”, “hours” for “hrs”"}, "[5]": {"assay": "Tolerability in Balb/c mice, body and organ weights (Example 10)", "format": "in vivo", "conditions": "50 mg/kg subcutaneously twice a week for four weeks, end of study", "protocol": "as §1, with “of” for “of four”, “Balb/c” for “CD-1”, “4-6” for “4-5”, “Taconic)” for “Charles River)”, “hours” for “hrs”\n(§3) Body weights of Balb/c mice were measured at the end of the study, and the average body weight for each group is presented in the table below. Modified oligonucleotides that caused any changes in organ weights outside the expected range for modified oligonucleotides were excluded from further studies."}, "[6]": {"tested_on": "Yap1 mRNA", "assay": "Antisense inhibition of human Yap1 in SNU-449 cells by modified oligonucleotides, single dose (Example 5, RTS36584)", "format": "cell-based", "in_short": "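Values are Yap1 mRNA as percent of untreated control cells, measured by quantitative real-time RT-PCR using RTS36584 and normalised to total RNA by RIBOGREEN. Cells were SNU-449, dosed by free uptake at 2,000 nM for approximately 48 hours.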"}, "[7]": {"assay": "Tolerability in Balb/c mice, plasma chemistry markers (Example 12)", "format": "in vivo", "conditions": "50 mg/kg subcutaneously twice a week for four weeks", "protocol": "as §2\nas §1, with “of” for “of four”, “Balb/c” for “CD-1”, “6-7” for “4-5”, “Taconic)” for “Charles River)”, “hours” for “hrs”"}, "[8]": {"assay": "Tolerability in Balb/c mice, body and organ weights (Example 12)", "format": "in vivo", "conditions": "male Balb/c mice, 50 mg/kg s.c. twice a week for four weeks (8 treatments), end of study (day 26)", "protocol": "as §1, with “of” for “of four”, “Balb/c” for “CD-1”, “6-7” for “4-5”, “Taconic)” for “Charles River)”, “hours” for “hrs”\nas §3"}},
  "note": "Several values for one entry are separate records, joined by “and”; a condition that tells them apart may be missing. Equal values may be shown once. Strand notation (5' to 3'): a small letter for the sugar, then the base; units joined by * are phosphorothioate-linked, units joined directly phosphodiester-linked; [ ] holds rarer units or linkages, { } end groups; capitals alone tell only the bases. k = constrained ethyl (cEt); [5mC] = 5-methylcytosine; d = 2'-deoxy (DNA)",
  "data": [
    {"substance": "715487 (kA*kT*kT*dA*d[5mC]*dT*dT*d[5mC]*dA*dT*dA*dG*d[5mC]*kT*kT*kA) [compound 715487]", "values": [
      {"measurement": "IC50", "setting": "[1]; Yap1 mRNA, linear regression on a log/linear plot", "value": 1000, "unit": "nM"},
      {"measurement": "% UTC 148 nM", "setting": "[1]; free uptake, 148 nM, approximately 48 hours, RTS4814", "value": 87, "unit": "% UTC"},
      {"measurement": "% UTC 444 nM", "setting": "[1]; free uptake, 444 nM, approximately 48 hours, RTS4814", "value": 56, "unit": "% UTC"},
      {"measurement": "% UTC 1333 nM", "setting": "[1]; free uptake, 1333 nM, approximately 48 hours, RTS4814", "value": 48, "unit": "% UTC"},
      {"measurement": "% UTC 4000 nM", "setting": "[1]; free uptake, 4000 nM, approximately 48 hours, RTS4814", "value": 29, "unit": "% UTC"},
      {"measurement": "Kidney weight", "setting": "[2]", "value": 0.42, "unit": "g"},
      {"measurement": "Liver weight", "setting": "[2]", "value": 1.46, "unit": "g"},
      {"measurement": "Spleen weight", "setting": "[2]", "value": 0.15, "unit": "g"},
      {"measurement": "body weight", "setting": "[2]", "value": 27, "unit": "g"},
      {"measurement": "ALB", "setting": "[3]", "value": 1.9, "unit": "g/dL"},
      {"measurement": "ALT", "setting": "[3]", "value": 66, "unit": "U/L"},
      {"measurement": "AST", "setting": "[3]", "value": 113, "unit": "U/L"},
      {"measurement": "ALT (U/L)", "setting": "[4]", "value": 79, "unit": "U/L"},
      {"measurement": "AST (U/L)", "setting": "[4]", "value": 96, "unit": "U/L"},
      {"measurement": "TBIL", "setting": "[4]", "value": 0.13, "unit": "mg/dL"},
      {"measurement": "Kidney weight", "setting": "[5]", "value": 0.36, "unit": "g"},
      {"measurement": "Liver weight", "setting": "[5]", "value": 1.24, "unit": "g"},
      {"measurement": "Spleen weight", "setting": "[5]", "value": 0.14, "unit": "g"},
      {"measurement": "body weight", "setting": "[5]", "value": 23, "unit": "g"}
    ]},
    {"substance": "958499 (kA*kT*kT*dA*dG*dA*dG*dT*dA*dT*dG*dT*dG*kG*k[5mC]*kA) [Compound 958499]", "values": [
      {"measurement": "YAP1 (% UTC)", "setting": "[6]; Table 39, SNU-449 cells, 10,000 cells per well, free uptake, 2,000 nM oligonucleotide, approx. 48 hours, RTS36584, normalized to RIBOGREEN, Yap1 mRNA relative to untreated control", "value": 8, "unit": "% UTC"},
      {"measurement": "YAP1 (% UTC)", "setting": "[6]; Table 40 (separate experiment), SNU-449 cells, 10,000 cells per well, free uptake, 2,000 nM oligonucleotide, approx. 48 hours, RTS36584, normalized to RIBOGREEN, Yap1 mRNA relative to untreated control", "value": 15, "unit": "% UTC"},
      {"measurement": "YAP1 (% UTC)", "setting": "[6]; Table 41, SNU-449 cells, 10,000 cells per well, free uptake, 2,000 nM modified oligonucleotide, approximately 48 hours, RTS36584, normalized to RIBOGREEN, Yap1 mRNA relative to untreated control cells", "value": 14, "unit": "% UTC"},
      {"measurement": "YAP1 (% UTC)", "setting": "[6]; Table 42 (separate experiment), SNU-449 cells, 10,000 cells per well, free uptake, 2,000 nM modified oligonucleotide, approximately 48 hours, RTS36584, normalized to RIBOGREEN, Yap1 mRNA relative to untreated control cells", "value": 15, "unit": "% UTC"},
      {"measurement": "YAP1 (% UTC)", "setting": "[6]; Table 43 experiment, SNU-449 cells, 10,000 cells per well, free uptake, 2,000 nM, approximately 48 hours, RTS36584, Yap1 mRNA normalized to RIBOGREEN, relative to untreated control cells", "value": 14, "unit": "% UTC"},
      {"measurement": "YAP1 (% UTC)", "setting": "[6]; Table 44 experiment, SNU-449 cells, 10,000 cells per well, free uptake, 2,000 nM, approximately 48 hours, RTS36584, Yap1 mRNA normalized to RIBOGREEN, relative to untreated control cells", "value": 9, "unit": "% UTC"},
      {"measurement": "YAP1 (% UTC)", "setting": "[6]; Table 45, Yap1 mRNA as percent of untreated control, SNU-449 cells, single dose", "value": 15, "unit": "% UTC"},
      {"measurement": "YAP1 (% UT)", "setting": "[6]; Table 46, Yap1 mRNA as percent of untreated control, SNU-449 cells, single dose", "value": 16, "unit": "% UT"},
      {"measurement": "YAP1 (% UT)", "setting": "[6]; Table 48, Yap1 mRNA level relative to untreated control, modified oligonucleotides targeting SEQ ID NO.: 1 and 2", "value": 15, "unit": "% UT"},
      {"measurement": "YAP1 (% UT)", "setting": "[6]; Table 49, Yap1 mRNA level relative to untreated control, modified oligonucleotides targeting SEQ ID NO.: 1 and 2", "value": 13, "unit": "% UT"},
      {"measurement": "YAP1 (% UT)", "setting": "[6]; Table 50, Yap1 mRNA remaining as percent of untreated control (UT), SNU-449 cells, single dose", "value": 12, "unit": "% UT"},
      {"measurement": "YAP1 (% UT)", "setting": "[6]; Table 51, Yap1 mRNA remaining as percent of untreated control (UT), SNU-449 cells, single dose", "value": 9, "unit": "% UT"},
      {"measurement": "YAP1 (% UT)", "setting": "[6]; Table 52, Yap1 mRNA, modified oligonucleotides targeting SEQ ID NO: 1 and 2", "value": 14, "unit": "% UT"},
      {"measurement": "YAP1 (% UT)", "setting": "[6]; Yap1 mRNA, percent of untreated control, modified oligonucleotides targeting SEQ ID NO: 1 and 2, Table 47", "value": "17 % UT and 10 % UT"}
    ]},
    {"substance": "958499 (ATTAGAGTATGTGGCA; 3-10-3 cEt gapmer, further chemistry not given here) [compound 958499]", "values": [
      {"measurement": "ALT", "setting": "[7]", "value": 142, "unit": "U/L"},
      {"measurement": "AST", "setting": "[7]", "value": 146, "unit": "U/L"},
      {"measurement": "BUN", "setting": "[7]", "value": 26, "unit": "mg/dL"},
      {"measurement": "TBIL", "setting": "[7]", "value": 0.17, "unit": "mg/dL"},
      {"measurement": "Kidney weight", "setting": "[8]", "value": 0.32, "unit": "g"},
      {"measurement": "Liver weight", "setting": "[8]", "value": 1.44, "unit": "g"},
      {"measurement": "Spleen weight", "setting": "[8]", "value": 0.14, "unit": "g"},
      {"measurement": "body weight", "setting": "[8]", "value": 23, "unit": "g"}
    ]}
  ]
}
